{"source": "patent US11970453B1", "about": "“2-ethoxy-8-(4-fluorobenzylidene)-4-(4-fluorophenyl)-5,6,7,8-tetrahydroquinoline-3-carbonitrile as an antimicrobial compound” (KING FAISAL UNIVERSITY, priority 2023, dated 2024)", "key": {"Staphylococcus aureus": {"tested_on": "Staphylococcus aureus", "experiment": "Antimicrobial screening, agar dilution method", "type": "cell-based", "settings": "after 10, 20, 40 and 60 minutes at all dilutions 1:100, 1:200, 1:400, 1:800", "protocol": "(§1) The antibacterial properties of the synthesized compound 2-ethoxy-8-(4-fluorobenzylidene)-4-(4-fluorophenyl)-5,6,7,8-tetrahydroquinoline-3-carbonitrile were studied by the method of agar dilution. Test solutions of each compound was prepared in concentration of 1% using dimethylformamide as a solvent then they are diluted in physiological solution to obtain the final experimental dilutions 1:100, 1:200, 1:400, 1:800. The effects of these substances are compared with furacillin in a controllable study. The testing microbes used were gram positive bacteria Staphylococcus aureus, gram negative bacteria Pseudomonas aeruginosa and Escherichia coli and Candida albicans fungus. The experiments used for this survey were meat-pentonlu agar (EPA) for cultivation of bacteria and Saburo environment for the fungus. Each experiment used 1 mL of test solution on each plate […]. Two drops of emulsified with microbes feel were added. All experimental samples were taken from the agar after 10, 20, 40, 60 minutes in the environment on the basis of Patrk planted. The bacteria were cultivated at a temperature of 37° C. for 1 day and the mushroom was kept in a thermostat for […] at a temperature of 28° C. Then results were checked."}, "Candida albicans": {"tested_on": "Candida albicans", "experiment": "Antimicrobial screening, agar dilution method", "type": "cell-based", "settings": "after 10, 20, 40 and 60 minutes at all dilutions 1:100, 1:200, 1:400, 1:800", "protocol": "as §1"}, "Pseudomonas aeruginosa": {"tested_on": "Pseudomonas aeruginosa", "experiment": "Antimicrobial screening, agar dilution method", "type": "cell-based", "settings": "after 10, 20, 40 and 60 minutes at all dilutions 1:100, 1:200, 1:400, 1:800", "protocol": "as §1"}, "Escherichia coli": {"tested_on": "Escherichia coli", "experiment": "Antimicrobial screening, agar dilution method", "type": "cell-based", "settings": "after 10, 20, 40 and 60 minutes at all dilutions 1:100, 1:200, 1:400, 1:800", "protocol": "as §1"}}, "data": [{"smiles": "CCOc1nc2c(c(-c3ccc(F)cc3)c1C#N)CCC/C2=C\\c1ccc(F)cc1", "note": "[2-ethoxy-8-(4-fluorobenzylidene)-4-(4-fluorophenyl)-5,6,7,8-tetrahydroquinoline-3-carbonitrile]", "values": [{"measurement": "melting point", "value": "151 to 153", "unit": "°C"}, {"measurement": "inhibition activity", "setting": "Staphylococcus aureus", "value": "highest inhibition activity"}, {"measurement": "inhibition activity", "setting": "Candida albicans", "value": "highest inhibition activity"}, {"measurement": "inhibition activity", "setting": "Pseudomonas aeruginosa", "value": "highest inhibition activity"}, {"measurement": "inhibition activity", "setting": "Escherichia coli", "value": "highest inhibition activity"}]}]}
